# Results taken from patent publication US12679832B2, “Compounds and their uses as CD38 inhibitors” (Nanjing Immunophage Biotech Co., Ltd., priority 2021, dated 2026).
# Where a name gives a salt, the structure may show the parent alone.
# Molecular target: T1, hCD38 Enzyme (Homo sapiens, UniProt P28907)
# T1 construct: purchased Sino Biological Inc 10818-H08H
# T1 sequence (P28907 43-300 limits assumed): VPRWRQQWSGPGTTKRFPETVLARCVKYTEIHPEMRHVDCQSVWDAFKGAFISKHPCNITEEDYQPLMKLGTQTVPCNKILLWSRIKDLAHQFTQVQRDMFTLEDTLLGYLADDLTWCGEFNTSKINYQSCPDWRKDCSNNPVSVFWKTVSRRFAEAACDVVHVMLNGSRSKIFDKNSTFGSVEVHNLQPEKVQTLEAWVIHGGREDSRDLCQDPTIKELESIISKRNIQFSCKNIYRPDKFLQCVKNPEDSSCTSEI
# Assay: CD38 hydrolase enzymatic assay
# Format: biochemical
# Conditions: rhCD38, ε-NAD substrate, 25° C., point reading time 20 mins; read-out: hCD38 Enzyme inhibition IC50
# Method: Also, a blank sample was prepared with 50 μl of sucrose buffer and no test compounds.
# The dynamic reading was performed at 25° C. with excitation light of 300 nm and emission light of 410 nm on the enzyme marker by contacting the above-prepared rhCD38 enzyme working fluid and the above-prepared solutions of the test compounds disclosed herein or the solution of the control. The readings were recorded for a total of 1 hour, and the data were analyzed with the point reading time of 20 mins.
# Fluorescence was recorded by a microplate reader. Individual excel files containing fluorescence data were exported and the results were plotted against various drug concentrations and analyzed in GraphPad Prism 7.0 for concentration curve generation.
row,SMILES,IC50 [nM]
1,"CC1(C)CCC(NC(=O)c2cc(C(F)(F)F)nc(-n3ccnc3)n2)CC1 [compound 138, N-(4,4-dimethylcyclohexyl)-2-(1H-imidazol-1-yl)-6-(trifluoromethyl) pyrimidine-4-carboxamide]",76
2,"O=C(Nc1cccc(F)c1)c1nc(-n2ccnc2)ccc1C(F)(F)F [compound 159, N-(3-fluorophenyl)-6-(1H-imidazol-1-yl)-3-(trifluoromethyl) picolinamide]",34
3,"O=C(Nc1cccc(F)c1)c1ccc(C(F)(F)F)c(-n2ccnc2)n1 [compound 160, N-(3-fluorophenyl)-6-(1H-imidazol-1-yl)-5-(trifluoromethyl) picolinamide]",317
4,"O=C(Nc1ccccn1)c1ccnc(-n2ccnc2)n1 [compound 112, 2-(1H-imidazol-1-yl)-N-(pyridin-2-yl)pyrimidine-4-carboxamide]",20
5,"O=C(Nc1ccccc1)c1cncc(-n2ccnc2)n1 [compound 35, 6-(1H-imidazol-1-yl)-N-phenylpyrazine-2-carboxamide]",4
6,"CN(C)CCOc1cc(F)cc(NC(=O)c2cc(C(F)(F)F)nc(-n3ccnc3)n2)c1 [compound 181, N-(3-(2-(dimethylamino)ethoxy)-5-fluorophenyl)-2-(1H-imidazol-1-yl)-6-(trifluoromethyl) pyrimidine-4-carboxamide]",25.4
7,"O=C(NC1CCCCC1)c1ccnc(-n2ccnc2)n1 [compound 72, N-cyclohexyl-2-(1H-imidazol-1-yl)pyrimidine-4-carboxamide]",16
8,"CO[C@H]1CC[C@H](NC(=O)c2nc(-n3ccnc3)cnc2N(C)C)CC1 [compound 46, 3-(dimethylamino)-6-(1H-imidazol-1-yl)-N-((1r,4r)-4-methoxycyclohexyl) pyrazine-2-carboxamide]",536
9,"CO[C@H]1CC[C@H](NC(=O)c2cc(-n3ccnc3)cnc2N)CC1 [compound 59, 2-amino-5-(1H-imidazol-1-yl)-N-((1r,4r)-4-methoxycyclohexyl) nicotinamide]",> 10000
10,"CO[C@H]1CC[C@H](NC(=O)c2cc(-c3cncs3)ccc2NC(C)=O)CC1 [compound 6, 2-acetamido-N-((1r,4r)-4-methoxycyclohexyl)-5-(thiazol-5-yl) benzamide]",> 10000
11,"CC(=O)N1CCC(NC(=O)c2cncc(-n3ccnc3)n2)CC1 [compound 40, N-(1-acetylpiperidin-4-yl)-6-(1H-imidazol-1-yl)pyrazine-2-carboxamide]",96
12,"O=C(Nc1cccnc1)c1ccnc(-n2ccnc2)n1 [compound 66, 2-(1H-imidazol-1-yl)-N-(pyridin-3-yl)pyrimidine-4-carboxamide]",1.7
13,"O=C(Nc1cc(F)cc(F)c1)c1cc(C(F)(F)F)nc(-n2ccnc2)n1 [compound 174, N-(3,5-difluorophenyl)-2-(1H-imidazol-1-yl)-6-(trifluoromethyl) pyrimidine-4-carboxamide]",5.4
14,"N#Cc1cc(C(=O)Nc2cccnc2)nc(-n2ccnc2)n1 [compound 186, 6-cyano-2-(1H-imidazol-1-yl)-N-(pyridin-3-yl)pyrimidine-4-carboxamide]",2
15,"O=C(NCC1CCCCC1)c1cncc(-n2ccnc2)n1 [compound 37, N-(cyclohexylmethyl)-6-(1H-imidazol-1-yl)pyrazine-2-carboxamide]",348
16,"O=C(Nc1cccc(F)c1)c1cc(OC2CCC2)nc(-n2ccnc2)n1 [compound 121, 6-cyclobutoxy-N-(3-fluorophenyl)-2-(1H-imidazol-1-yl)pyrimidine-4-carboxamide]",8
17,"O=C(Nc1cccc(F)c1)c1cc(N2CCOCC2)nc(-n2ccnc2)n1 [compound 114, N-(3-fluorophenyl)-2-(1H-imidazol-1-yl)-6-morpholinopyrimidine-4-carboxamide]",5
18,"O=C(Nc1cc(F)ccc1F)c1cc(N2CCCCC2)nc(-n2ccnc2)n1 [compound 135, N-(2,5-difluorophenyl)-2-(1H-imidazol-1-yl)-6-(piperidin-1-yl)pyrimidine-4-carboxamide]",36
19,"O=C(NC1CCNCC1)c1cc(C(F)(F)F)nc(-n2ccnc2)n1 [compound 162, 2-(1H-imidazol-1-yl)-N-(piperidin-4-yl)-6-(trifluoromethyl) pyrimidine-4-carboxamide hydrochloride]",> 10000
20,"CN1CCC(NC(=O)c2cncc(-n3ccnc3)n2)CC1 [compound 36, 6-(1H-imidazol-1-yl)-N-(1-methylpiperidin-4-yl)pyrazine-2-carboxamide]",9750
21,"O=C(Nc1cccc(F)c1)c1ccnc(-c2ccn[nH]2)n1 [compound 116, N-(3-fluorophenyl)-2-(1H-pyrazol-5-yl)pyrimidine-4-carboxamide]",> 10000
22,"O=C(Nc1cccc(F)c1)c1cc(N2CCCCC2)nc(-n2ccnc2)n1 [compound 101, N-(3-fluorophenyl)-2-(1H-imidazol-1-yl)-6-(piperidin-1-yl)pyrimidine-4-carboxamide]",17
23,"CO[C@H]1CC[C@H](NC(=O)c2cc(-n3nccn3)cc3cc[nH]c23)CC1 [compound 55, N-((1r,4r)-4-methoxycyclohexyl)-5-(2H-1,2,3-triazol-2-yl)-1H-indole-7-carboxamide]",> 10000
24,"O=C(Nc1cccc(Cl)c1)c1cc(C(F)(F)F)nc(-n2ccnc2)n1 [compound 124, N-(3-chlorophenyl)-2-(1H-imidazol-1-yl)-6-(trifluoromethyl) pyrimidine-4-carboxamide]",3
25,"CO[C@H]1CC[C@H](NC(=O)c2cccc(-c3cncs3)c2F)CC1 [compound 8, 2-fluoro-N-((1r,4r)-4-methoxycyclohexyl)-3-(thiazol-5-yl)benzamide]",> 10000
26,"O=C(Nc1cccc(N2CCOCC2)c1)c1cc(C(F)(F)F)nc(-n2ccnc2)n1 [compound 177, 2-(1H-imidazol-1-yl)-N-(3-morpholinophenyl)-6-(trifluoromethyl) pyrimidine-4-carboxamide]",38
27,"N#Cc1cncc(NC(=O)c2cc(C(F)(F)F)nc(-n3ccnc3)n2)c1 [compound 169, N-(5-cyanopyridin-3-yl)-2-(1H-imidazol-1-yl)-6-(trifluoromethyl) pyrimidine-4-carboxamide]",20

# Results, then the compound that gave them:
row,IC50 [nM],SMILES
1,30,"CNc1cc(C(=O)N[C@H]2CC[C@H](OC)CC2)nc(-n2ccnc2)n1 [compound 24, 2-(1H-imidazol-1-yl)-N-((1r,4r)-4-methoxycyclohexyl)-6-(methylamino)pyrimidine-4-carboxamide]"
2,389,"CO[C@H]1CC[C@H](NC(=O)c2nc(-n3ccnc3)ccc2Cl)CC1 [compound 75, 3-chloro-6-(1H-imidazol-1-yl)-N-((1r,4r)-4-methoxycyclohexyl) picolinamide]"
3,> 10000,"CO[C@H]1CC[C@H](NC(=O)c2ccnc(-n3ccnc3C(F)(F)F)n2)CC1 [compound 154, N-((1r,4r)-4-methoxycyclohexyl)-2-(2-(trifluoromethyl)-1H-imidazol-1-yl) pyrimidine-4-carboxamide]"
4,2710,"CO[C@H]1CC[C@H](NC(=O)c2cc(-n3ccnc3)cc(Cl)n2)CC1 [compound 2, 6-chloro-4-(1H-imidazol-1-yl)-N-((1r,4r)-4-methoxycyclohexyl)picolinamide]"
5,20,"COc1cc(C(=O)N[C@H]2CC[C@H](OC)CC2)nc(-n2ccnc2)n1 [compound 105, 2-(1H-imidazol-1-yl)-6-methoxy-N-((1r,4r)-4-methoxycyclohexyl) pyrimidine-4-carboxamide]"
6,13,"CO[C@H]1CC[C@H](NC(=O)c2nc(-n3ccnc3)cnc2N)CC1 [compound 41, 3-amino-6-(1H-imidazol-1-yl)-N-((1r,4r)-4-methoxycyclohexyl) pyrazine-2-carboxamide]"
7,36,"CO[C@H]1CC[C@H](NC(=O)c2cc(C(F)(F)F)cc(-n3ccnc3)n2)CC1 [compound 53, 6-(1H-imidazol-1-yl)-N-((1r,4r)-4-methoxycyclohexyl)-4-(trifluoromethyl) picolinamide]"
8,22500,"CO[C@H]1CC[C@H](NC(=O)c2cc(-n3ccnc3)cnn2)CC1 [compound 28, 5-(1H-imidazol-1-yl)-N-((1r,4r)-4-methoxycyclohexyl)pyridazine-3-carboxamide]"
9,18,"C[C@H]1CC[C@H](NC(=O)c2cc(C(F)(F)F)nc(-n3ccnc3)n2)CC1 [compound 146, 2-(1H-imidazol-1-yl)-N-((1r,4r)-4-methylcyclohexyl)-6-(trifluoromethyl) pyrimidine-4-carboxamide]"
10,1550,"CO[C@H]1CC[C@H](NC(=O)c2nc(-n3ccnc3)ccc2C(F)(F)F)CC1 [compound 151, 6-(1H-imidazol-1-yl)-N-((1r,4r)-4-methoxycyclohexyl)-3-(trifluoromethyl) picolinamide]"
11,9,"CO[C@H]1CC[C@H](NC(=O)c2cc(Cl)cc(-n3ccnc3)n2)CC1 [compound 51, 4-chloro-6-(1H-imidazol-1-yl)-N-((1r,4r)-4-methoxycyclohexyl) picolinamide]"
12,> 10000,"CO[C@H]1CC[C@H](NC(=O)c2cccc(-c3cncs3)n2)CC1 [compound 12, N-((1r,4r)-4-methoxycyclohexyl)-6-(thiazol-5-yl)picolinamide]"
13,55,"CO[C@H]1CC[C@H](NC(=O)c2cc(C)cc(-n3ccnc3)n2)CC1 [compound 52, 6-(1H-imidazol-1-yl)-N-((1r,4r)-4-methoxycyclohexyl)-4-methylpicolinamide]"
